In one series the test system is Septoria tritici. Briefly: Microtest No. 1: activity against the Septoria leaf spot pathogen Septoria tritici in the microtiter test. Format: cell-based. The following applies: 125 ppm, day 7 after inoculation, absorption at 405 nm; active compound-free control = 100%. As to the method:
Microtest No. 1—Activity Against the Septoria Leaf Spot Pathogen Septoria tritici in the Microtiter Test The stock solution was pipetted into a microtiter plate (MTP) and diluted with an aqueous malt-based fungus nutrient medium to the stated active compound concentration. An aqueous spore suspension of Septoria tritici was then added. The plates were placed in a water vapor-saturated chamber at temperatures of 18° C. On day 7 after the inoculation, the MTPs were measured in an absorption photometer at 405 nm. The measured parameters were compared to the growth of the active compound-free control variant (100%) and the fungus- and active compound-free blank value to determine the relative growth in % of the pathogens in the individual active compounds.

A further series relates to Pyricularia oryzae. Format: cell-based. The following applies: 125 ppm, day 7 after inoculation, absorption at 405 nm; active compound-free control = 100%.
Another series deals with Puccinia recondita. Briefly: Curative activity against brown rust of wheat caused by Puccinia recondita (greenhouse). The series is classed as in vivo. The following applies: 63 ppm, wheat sprayed 1 day after inoculation (curative), 7 days; untreated control 90% infected. As to the method:
The solution was then made up to 100 ml with water. This stock solution was diluted to the active compound concentration stated below using the solvent/emulsifier/water mixture described. Curative Activity Against Brown Rust of Wheat Caused by Puccinia recondita Leaves of potted wheat seedlings of the cultivar “Kanzler” were inoculated with a spore suspension of brown rust (Puccinia recondita). The pots were then placed into a chamber with high atmospheric humidity (90-95%) at 20-22° C. for 24 hours. During this time, the spores germinated and the germ tubes penetrated into the leaf tissue. The next day, the infected plants were sprayed to runoff point with the active compound solution described above having the concentration of active compound stated below. After the spray coating had dried on, the test plants were cultivated in a greenhouse at temperatures between 20 and 22° C. and at 65 to 70% relative atmospheric humidity for 7 days. The extent of the rust fungus development on the leaves was then determined.

The subject of series [1] is Erysiphe [syn. Blumeria] graminis forma specialis. tritici. Briefly: Activity against mildew of wheat caused by Erysiphe [syn. Blumeria] graminis forma specialis tritici (greenhouse). Format: in vivo, Erysiphe graminis f. sp. tritici. The following applies: 250 ppm, wheat seedlings, protective, assessed after 7 days, % of total leaf area; control 90% infected.

Take `CONC(=N)c1nc(Cl)c(-c2c(F)cc(F)cc2F)c(N2CCCO2)n1` [Compound 17, N-Methoxy-4-chloro-6-(isoxazolidin-2-yl)-5-(2,4,6-trifluorophenyl)-2-pyrimidinecarboximidamide]: the melting point (as a rule, the temperature, or range, at which the solid turns liquid) lay within 192 to 193 °C.
Same read-out and setting: the value for `CC1CCCN(c2nc(-n3cncn3)nc(Cl)c2-c2c(F)cc(F)cc2F)O1` (centres unmarked) [Compound 21, 4-Chloro-6-(6-methyltetrahydro-2H-(1,2)-oxazin-2-yl)-2-(1,2,4-triazol-1-yl)-5-(2,4,6-trifluorophenyl)pyrimidine] was 141 to 143 °C.
With `CON(c1nc(C#N)nc(Cl)c1-c1c(F)cccc1Cl)C(C)C` [Compound 32], the relative growth in the series on Septoria tritici and in the series with Pyricularia oryzae was 0% in each case.
In the series on Puccinia recondita, `CON=C(N)c1nc(Cl)c(-c2c(F)cccc2Cl)c(N(CC2CC2)OC)n1` [Compound 33] had an infection of 0%.
Compound `CON(CC1CC1)c1nc(C#N)nc(Cl)c1-c1c(F)cccc1F` [Compound 35] had an infection in series [1] of 5%.
Regarding `COc1nc(Cl)c(-c2c(F)cc(F)cc2F)c(N(CC2CC2)OC)n1` [Compound 40], the relative growth with Septoria tritici and in the series on Pyricularia oryzae was 0% throughout.

The record behind these values is patent US20090076047A1, “2-Substituted Hydroxylaminopyrimidine, Method for the Production and the Use Thereof in the Form of Pesticides” (priority 2005, published 2009).
